# Measurements published in PMC5218480 (PLoS ONE, 2017).
# Tested on: MV-4-11 cells
# Test: Gene expression microarray analysis (Affymetrix PrimeView) and GSEA
# Assay type: cell-based, human
# Design: RFU PODN (11730768_x_at) / Fold change /veh PODN (11730768_x_at) / RFU LINC00158 (11744669_a_at) / Fold change /veh LINC00158 (11744669_a_at) / RFU DUSP10 (11751237_a_at) / Fold change /veh DUSP10 (11751237_a_at) / RFU ID3 (11757404_x_at) / Fold change /veh ID3 (11757404_x_at) / RFU PLEKHG5 (11737974_s_at) / Fold change /veh PLEKHG5 (11737974_s_at) / RFU LRRC4B (11730491_at) / Fold change /veh LRRC4B (11730491_at) / RFU GIMAP4 (11747438_a_at) / Fold change /veh GIMAP4 (11747438_a_at) / RFU KRT8 (11758183_x_at) / Fold change /veh KRT8 (11758183_x_at) / RFU CNN1 (11734310_a_at) / Fold change /veh CNN1 (11734310_a_at) / RFU VPS37D (11726825_at) / Fold change /veh VPS37D (11726825_at) / RFU C10orf10 (11716522_x_at) / Fold change /veh C10orf10 (11716522_x_at) / RFU KIR2DL2 /// KIR2DL4 /// KIR2DL5A /// KIR2DL5B /// KIR2DS1 /// KIR2DS2 /// KIR2DS3 /// KIR2DS4 /// KIR3DL3 /// KIR3DL3 /// KIR3DS1 (11738374_at) / Fold change /veh KIR2DL2 /// KIR2DL4 /// KIR2DL5A /// KIR2DL5B /// KIR2DS1 /// KIR2DS2 /// KIR2DS3 /// KIR2DS4 /// KIR3DL3 /// KIR3DL3 /// KIR3DS1 (11738374_at) / RFU C1QL1 (11718748_at) / Fold change /veh C1QL1 (11718748_at) / RFU TMPRSS4 (11747572_a_at) / Fold change /veh TMPRSS4 (11747572_a_at) / RFU HAMP (11756126_x_at) / Fold change /veh HAMP (11756126_x_at) / RFU RNFT2 (11725882_a_at) / Fold change /veh RNFT2 (11725882_a_at) / RFU NR4A2 (11747474_a_at) / Fold change /veh NR4A2 (11747474_a_at) / RFU ABCC12 (11746883_a_at) / Fold change /veh ABCC12 (11746883_a_at) / RFU TMEM136 (11760407_x_at) / Fold change /veh TMEM136 (11760407_x_at) / RFU CLDN22 /// WWC2 (11732394_at) / Fold change /veh CLDN22 /// WWC2 (11732394_at) / RFU HLA-DPB1 (11760878_x_at) / Fold change /veh HLA-DPB1 (11760878_x_at) / RFU SPINT1 (11716480_a_at) / Fold change /veh SPINT1 (11716480_a_at) / RFU GAP43 (11754022_s_at) / Fold change /veh GAP43 (11754022_s_at) / RFU A4GNT (11735810_at) / Fold change /veh A4GNT (11735810_at) / RFU PRB3 (11715151_x_at) / Fold change /veh PRB3 (11715151_x_at) / RFU TUBB4B (11761932_at) / Fold change /veh TUBB4B (11761932_at) / RFU CAPN14 (11732068_a_at) / Fold change /veh CAPN14 (11732068_a_at) / RFU TMCC2 (11721928_a_at) / Fold change /veh TMCC2 (11721928_a_at) / RFU IRGQ (11745062_a_at) / Fold change /veh IRGQ (11745062_a_at) / RFU FAM174B (11720279_a_at) / Fold change /veh FAM174B (11720279_a_at) / RFU TMPRSS4 (11748680_a_at) / Fold change /veh TMPRSS4 (11748680_a_at) / RFU FAM212B (11763350_a_at) / Fold change /veh FAM212B (11763350_a_at) / RFU PLEKHG5 (11743358_a_at) / Fold change /veh PLEKHG5 (11743358_a_at) / RFU ZSCAN30 (11745921_a_at) / Fold change /veh ZSCAN30 (11745921_a_at) / RFU CMKLR1 (11741424_a_at) / Fold change /veh CMKLR1 (11741424_a_at) / RFU LOC101060620 /// MAPK8IP1 (11723275_at) / Fold change /veh LOC101060620 /// MAPK8IP1 (11723275_at) / RFU SPTSSB (11747773_x_at) / Fold change /veh SPTSSB (11747773_x_at) / RFU PRSS12 (11739890_at) / Fold change /veh PRSS12 (11739890_at) / RFU BIN1 (11741810_x_at) / Fold change /veh BIN1 (11741810_x_at) / RFU WNT11 (11732464_a_at) / Fold change /veh WNT11 (11732464_a_at) / RFU C10orf10 (11716521_a_at) / Fold change /veh C10orf10 (11716521_a_at) / RFU C5orf56 (11738089_at) / Fold change /veh C5orf56 (11738089_at) / RFU CYB561 (11721691_x_at) / Fold change /veh CYB561 (11721691_x_at) / RFU ANKRD19P (11752326_a_at) / Fold change /veh ANKRD19P (11752326_a_at) / RFU OR2T12 /// OR2T33 /// OR2T8 (11738714_s_at) / Fold change /veh OR2T12 /// OR2T33 /// OR2T8 (11738714_s_at) / RFU VCAN (11748164_a_at) / Fold change /veh VCAN (11748164_a_at) / RFU JSRP1 (11732532_at) / Fold change /veh JSRP1 (11732532_at) / RFU KRTAP10-11 (11738290_x_at) / Fold change /veh KRTAP10-11 (11738290_x_at) / RFU MYO3A (11730013_a_at) / Fold change /veh MYO3A (11730013_a_at) / RFU EBF3 (11725865_a_at) / Fold change /veh EBF3 (11725865_a_at) / RFU CAMK2N1 (11719241_x_at) / Fold change /veh CAMK2N1 (11719241_x_at) / RFU C5orf56 (11738088_a_at) / Fold change /veh C5orf56 (11738088_a_at) / RFU OLFML3 (11715873_a_at) / Fold change /veh OLFML3 (11715873_a_at) / RFU LOC100653217 /// NTM (11731650_a_at) / Fold change /veh LOC100653217 /// NTM (11731650_a_at) / RFU MAPK11 (11762145_a_at) / Fold change /veh MAPK11 (11762145_a_at) / RFU FIZ1 (11724087_x_at) / Fold change /veh FIZ1 (11724087_x_at) / RFU OASL (11726364_x_at) / Fold change /veh OASL (11726364_x_at) / RFU SOX15 (11748057_x_at) / Fold change /veh SOX15 (11748057_x_at) / RFU CD79A (11719716_a_at) / Fold change /veh CD79A (11719716_a_at) / RFU HIST1H1D (11736915_at) / Fold change /veh HIST1H1D (11736915_at) / RFU CASKIN2 (11723855_a_at) / Fold change /veh CASKIN2 (11723855_a_at) / RFU LOC730098 (11760151_x_at) / Fold change /veh LOC730098 (11760151_x_at) / RFU OR4N2 (11742367_at) / Fold change /veh OR4N2 (11742367_at) / RFU PRRT2 (11749266_a_at) / Fold change /veh PRRT2 (11749266_a_at) / RFU SNX32 (11753110_a_at) / Fold change /veh SNX32 (11753110_a_at) / RFU CDHR5 (11726645_a_at) / Fold change /veh CDHR5 (11726645_a_at) / RFU RCAN1 (11760418_a_at) / Fold change /veh RCAN1 (11760418_a_at) / RFU FAM167A (11723789_a_at) / Fold change /veh FAM167A (11723789_a_at) / RFU FAM26E (11764081_at) / Fold change /veh FAM26E (11764081_at) / RFU ISYNA1 (11749810_s_at) / Fold change /veh ISYNA1 (11749810_s_at) / RFU ACY1 (11761880_at) / Fold change /veh ACY1 (11761880_at) / RFU 11764098_at / Fold change /veh 11764098_at / RFU SAMD14 (11745864_x_at) / Fold change /veh SAMD14 (11745864_x_at) / RFU NPB (11741838_a_at) / Fold change /veh NPB (11741838_a_at) / RFU TMPRSS6 (11731388_a_at) / Fold change /veh TMPRSS6 (11731388_a_at) / RFU KRTAP10-2 (11738614_at) / Fold change /veh KRTAP10-2 (11738614_at) / RFU ARHGAP8 /// PRR5-ARHGAP8 (11727945_x_at) / Fold change /veh ARHGAP8 /// PRR5-ARHGAP8 (11727945_x_at) / RFU KRTAP5-7 /// NADSYN1 (11734609_at) / Fold change /veh KRTAP5-7 /// NADSYN1 (11734609_at) / RFU RASL12 (11751679_a_at) / Fold change /veh RASL12 (11751679_a_at) / RFU CDKN2B (11736163_a_at) / Fold change /veh CDKN2B (11736163_a_at) / RFU PRF1 (11729649_at) / Fold change /veh PRF1 (11729649_at) / RFU, ZNF638 /// ZNF638-IT1 / Fold change vs veh, ZNF638 /// ZNF638-IT1 / RFU, PANK3 / Fold change vs veh, PANK3 / RFU, SH3YL1 / Fold change vs veh, SH3YL1 / RFU, ZEB2 / Fold change vs veh, ZEB2 / RFU, NRIP1 / Fold change vs veh, NRIP1 / RFU, PTTG1IP / Fold change vs veh, PTTG1IP / RFU, CAPN2 / Fold change vs veh, CAPN2 / RFU, MED14 / Fold change vs veh, MED14 / RFU, SNORA58 / Fold change vs veh, SNORA58 / RFU, C1orf63 / Fold change vs veh, C1orf63 / RFU, LRRFIP1 / Fold change vs veh, LRRFIP1 / RFU, NDUFAF7 / Fold change vs veh, NDUFAF7 / RFU, SLC12A2 / Fold change vs veh, SLC12A2 / RFU, IBTK / Fold change vs veh, IBTK / RFU, ESF1 / Fold change vs veh, ESF1 / Fold change vs veh, TMEM50B / RFU, TAOK1 / Fold change vs veh, TAOK1 / RFU, ACBD3 / Fold change vs veh, ACBD3 / RFU, TMA16 / Fold change vs veh, TMA16 / RFU, RWDD3 / Fold change vs veh, RWDD3 / RFU, BCAT1 / Fold change vs veh, BCAT1 / RFU, EDEM3 / Fold change vs veh, EDEM3 / RFU, TMEM33 / Fold change vs veh, TMEM33 / RFU, WDR75 / Fold change vs veh, WDR75 / RFU, AHCTF1 / Fold change vs veh, AHCTF1 / RFU, TFRC / Fold change vs veh, TFRC / RFU, ZDHHC17 / Fold change vs veh, ZDHHC17 / RFU, NOM1 / Fold change vs veh, NOM1 / RFU, ARL8B / Fold change vs veh, ARL8B / RFU, ZBTB11 / Fold change vs veh, ZBTB11 / RFU, TAMM41 / Fold change vs veh, TAMM41 / RFU, KIAA1704 /// LOC100996395 / Fold change vs veh, KIAA1704 /// LOC100996395 / RFU, ING1 / Fold change vs veh, ING1 / RFU, TRMT61B / Fold change vs veh, TRMT61B / RFU, FUBP3 / Fold change vs veh, FUBP3 / RFU, TP53 / Fold change vs veh, TP53 / RFU, TNKS2 / Fold change vs veh, TNKS2 / RFU, ZFP14 / Fold change vs veh, ZFP14 / RFU, ACTR2 / Fold change vs veh, ACTR2 / RFU, PPP3R1 / Fold change vs veh, PPP3R1 / RFU, PIK3R1 / Fold change vs veh, PIK3R1 / RFU, HNRNPA1 / Fold change vs veh, HNRNPA1 / RFU, RNF170 / Fold change vs veh, RNF170 / RFU, ZNF28 / Fold change vs veh, ZNF28 / RFU, RNGTT / Fold change vs veh, RNGTT / RFU, OGT / Fold change vs veh, OGT / RFU, BRD1 / Fold change vs veh, BRD1 / RFU, MARS / Fold change vs veh, MARS / RFU, ZNF655 / Fold change vs veh, ZNF655 / RFU, FAHD1 / Fold change vs veh, FAHD1 / RFU, BDP1 / Fold change vs veh, BDP1 / RFU, LRRCC1 / Fold change vs veh, LRRCC1 / RFU, ARID1A / Fold change vs veh, ARID1A / RFU, ZNF146 / Fold change vs veh, ZNF146 / RFU, ZNF330 / Fold change vs veh, ZNF330 / RFU, GPN3 / Fold change vs veh, GPN3 / RFU, C9orf123 / Fold change vs veh, C9orf123 / RFU, N4BP2L2 / Fold change vs veh, N4BP2L2 / RFU, ARFIP1 / Fold change vs veh, ARFIP1 / RFU, FAM179B / Fold change vs veh, FAM179B / RFU, BCL10 / Fold change vs veh, BCL10 / RFU, UHRF1BP1L / Fold change vs veh, UHRF1BP1L / RFU, BET1 / Fold change vs veh, BET1 / RFU, CNOT2 / Fold change vs veh, CNOT2 / RFU, ZNF268 / Fold change vs veh, ZNF268 / Fold change vs veh, ZNF507 / RFU, DGCR2 / Fold change vs veh, DGCR2 / RFU, WDSUB1 / Fold change vs veh, WDSUB1 / Fold change vs veh, HSP90B1 /// MIR3652 / RFU, ADSS / Fold change vs veh, ADSS / RFU, GK / Fold change vs veh, GK / RFU, ZNF148 / Fold change vs veh, ZNF148 / RFU, TAF9 / Fold change vs veh, TAF9 / RFU, SLC1A5 / Fold change vs veh, SLC1A5 / RFU, SLMO2 / Fold change vs veh, SLMO2 / RFU, ABCC4 / Fold change vs veh, ABCC4 / RFU, LOC101060439 /// RAP1B / Fold change vs veh, LOC101060439 /// RAP1B / RFU, RFX7 / Fold change vs veh, RFX7 / RFU, GTPBP10 / Fold change vs veh, GTPBP10 / RFU, CNEP1R1 / Fold change vs veh, CNEP1R1 / RFU, BIVM-ERCC5 /// ERCC5 / Fold change vs veh, BIVM-ERCC5 /// ERCC5 / RFU, ILF3 / Fold change vs veh, ILF3 / RFU 11762660_at / Fold change /veh 11762660_at / RFU VCAN (11757783_s_at) / Fold change /veh VCAN (11757783_s_at) / RFU DDX43 (11728927_at) / Fold change /veh DDX43 (11728927_at) / RFU KRT8 (11758188_x_at) / Fold change /veh KRT8 (11758188_x_at) / RFU NKD1 (11759106_at) / Fold change /veh NKD1 (11759106_at) / RFU SRD5A1 (11742802_a_at) / Fold change /veh SRD5A1 (11742802_a_at) / RFU TPSAB1 /// TPSB2 (11721975_s_at) / Fold change /veh TPSAB1 /// TPSB2 (11721975_s_at) / RFU GSTM3 (11746129_a_at) / Fold change /veh GSTM3 (11746129_a_at) / RFU IL23R (11737362_x_at) / Fold change /veh IL23R (11737362_x_at) / RFU TMEM51 (11727254_a_at) / Fold change /veh TMEM51 (11727254_a_at) / RFU PIWIL2 (11732686_x_at) / Fold change /veh PIWIL2 (11732686_x_at) / RFU ORM1 (11744905_x_at) / Fold change /veh ORM1 (11744905_x_at) / RFU CCDC152 (11743942_at) / Fold change /veh CCDC152 (11743942_at) / RFU ECM1 (11717891_a_at) / Fold change /veh ECM1 (11717891_a_at) / RFU IL23R (11748794_a_at) / Fold change /veh IL23R (11748794_a_at) / RFU TNFAIP8L3 (11732012_x_at) / Fold change /veh TNFAIP8L3 (11732012_x_at) / RFU MBOAT4 (11741988_at) / Fold change /veh MBOAT4 (11741988_at) / RFU 11764193_at / Fold change /veh 11764193_at / RFU TMEM53 (11763286_at) / Fold change /veh TMEM53 (11763286_at) / RFU MAGEB2 (11727129_at) / Fold change /veh MAGEB2 (11727129_at) / RFU TMEM200A (11744735_a_at) / Fold change /veh TMEM200A (11744735_a_at) / RFU CCDC152 (11751479_a_at) / Fold change /veh CCDC152 (11751479_a_at) / RFU FAM211A (11726209_a_at) / Fold change /veh FAM211A (11726209_a_at) / RFU RGS16 (11746705_a_at) / Fold change /veh RGS16 (11746705_a_at) / RFU VCAN (11755009_s_at) / Fold change /veh VCAN (11755009_s_at) / RFU RHOB (11743442_s_at) / Fold change /veh RHOB (11743442_s_at) / RFU RGS16 (11720943_a_at) / Fold change /veh RGS16 (11720943_a_at) / RFU RGS16 (11720944_at) / Fold change /veh RGS16 (11720944_at) / RFU, VPS4B / Fold change vs veh, VPS4B / RFU, CREB1 / Fold change vs veh, CREB1 / RFU, DNAJC13 / Fold change vs veh, DNAJC13 / RFU, GNAQ / Fold change vs veh, GNAQ / RFU, CDK5R1 / Fold change vs veh, CDK5R1 / RFU, ZRANB3 / Fold change vs veh, ZRANB3 / RFU, CUL4A / Fold change vs veh, CUL4A / RFU, CCNY / Fold change vs veh, CCNY / RFU, UFL1 / Fold change vs veh, UFL1 / RFU, COG3 / Fold change vs veh, COG3 / RFU, DIAPH2 / Fold change vs veh, DIAPH2 / RFU, SKA2 / Fold change vs veh, SKA2 / RFU, AFF3 / Fold change vs veh, AFF3 / RFU, LMF1 / Fold change vs veh, LMF1 / RFU, IPO11 / Fold change vs veh, IPO11 / RFU, DFFB / Fold change vs veh, DFFB / RFU, FOXP1 / Fold change vs veh, FOXP1 / RFU, CARD8 / Fold change vs veh, CARD8 / RFU, STRN3 / Fold change vs veh, STRN3 / RFU, ADK / Fold change vs veh, ADK / RFU, RASSF2 / Fold change vs veh, RASSF2 / RFU, WIPF1 / Fold change vs veh, WIPF1 / RFU, LARP1B / Fold change vs veh, LARP1B / RFU, RASA1 / Fold change vs veh, RASA1 / RFU, RB1 / Fold change vs veh, RB1 / RFU, PPFIA1 / Fold change vs veh, PPFIA1 / RFU, MAT2A / Fold change vs veh, MAT2A / RFU, CCT5 / Fold change vs veh, CCT5 / RFU, WDR92 / Fold change vs veh, WDR92 / RFU, CUX1 / Fold change vs veh, CUX1 / RFU, TTC7A / Fold change vs veh, TTC7A / RFU, TMEM135 / Fold change vs veh, TMEM135 / RFU, DEPTOR / Fold change vs veh, DEPTOR / RFU, CPM / Fold change vs veh, CPM / RFU, DNAJB6 / Fold change vs veh, DNAJB6 / RFU, CACNA2D3 / Fold change vs veh, CACNA2D3 / RFU, DTX4 / Fold change vs veh, DTX4 / RFU, TFCP2 / Fold change vs veh, TFCP2 / RFU, GMCL1 /// GMCL1P1 / Fold change vs veh, GMCL1 /// GMCL1P1 / RFU, AEBP2 / Fold change vs veh, AEBP2 / RFU, SNHG1 /// SNORD22 /// SNORD25 /// SNORD26 /// SNORD27 /// SNORD28 /// SNORD29 /// SNORD31 / Fold change vs veh, SNHG1 /// SNORD22 /// SNORD25 /// SNORD26 /// SNORD27 /// SNORD28 /// SNORD29 /// SNORD31 / Fold change (Aza/veh), C12orf56 (ProbeSet 11735607_a_at) / Fold change (ACY-1035/veh), C12orf56 (ProbeSet 11735607_a_at) / Fold change (Aza/veh), FGFR1OP (ProbeSet 11751329_s_at) / Fold change (ACY-1035/veh), FGFR1OP (ProbeSet 11751329_s_at) / Fold change (Aza/veh), VPS36 (ProbeSet 11739960_a_at) / Fold change (ACY-1035/veh), VPS36 (ProbeSet 11739960_a_at) / RFU SYPL1 (11715823_x_at) / Fold change /veh SYPL1 (11715823_x_at) / RFU IGFBP7 (11715501_s_at) / Fold change /veh IGFBP7 (11715501_s_at) / RFU REEP3 (11722064_at) / Fold change /veh REEP3 (11722064_at) / RFU IGLL1 (11728026_x_at) / Fold change /veh IGLL1 (11728026_x_at): dose or concentration left out as unconfirmed
# Conditions: ProbeSet 11718701_a_at; LIST B
smiles,measurement,value
Nc1ncn([C@@H]2O[C@H](CO)[C@@H](O)[C@H]2O)c(=O)n1 [azacitidine],"Fold change vs veh, ARFIP1",1.05
